Reference: patent publication US20180200279A1, “INHIBITION OF HSV-1-ASSOCIATED CORNEAL NEOVASCULARIZATION USING INHIBITORS OF CYCLIN-DEPENDENT KINASE 9” (XAVIER UNIVERSITY OF LOUISIANA, priority 2014, published 2018)

Experiments:
HSV-1 17syn+ = experiment: Real-time PCR of HSV-1 DNA on ocular swabs of infected mice; assay type: in vivo, Balb/c mice; settings: day 25 post infection; 1% TFT, 0.01% flavopiridol, 0.1% DRB drops; n=10
Description: SYBR Green semi-quantitative real-time PCR was performed on DNA samples eluted from swabs taken from mouse eyes on days 2, 4, 7, 9, 11, 14, 18 and 25 post infection with 5×10^5 PFU/eye HSV-1 17syn+ using primers specific for HSV-1 DNA polymerase.
All experimental procedures were performed in accordance with the ARVO Resolution for the Use of Animals in Ophthalmic and Vision Research and were approved by the Xavier University Animal Care and Use Committee. Female 20 g Balb/c mice were obtained from Charles River Laboratories. Mice were allowed to equilibrate to their surroundings for 2 weeks and then were anesthetized by intramuscular administration of xylazine (6.6 mg/kg of body weight) and ketamine (100 mg/kg of body weight). The corneas were mildly scarified in a 2×2 cross-hatch pattern and each cornea was inoculated with 5×10^5 PFU of strain HSV 17syn+. […] DNA was collected by swabbing the eyes with filter paper, and the eyes were examined with a slit-lamp on PI days 2, 4, 7, 9, 11, 14, 18 and 25. Average neovascularization/eye was scored using the formula A=(C×0.4×L×π)/2 where C=clock hours of neovascularization; 30° arc is 1 (360° circle with a total of 12); L is the length of the longest neovessel, and A is the area of neovascularization. Students scored (by eye) the animals on the days indicated in a masked fashion using the slit-lamp, and images representative of each group were taken. Clinical scores based on epiphora, inflammation and discharge were calculated where 0=no manifestations, +1=slight manifestations, +2=moderate manifestations, and +3=severe manifestations. […] Ex ovo chick embryo chorioallantoic membrane collagen angiogenesis assays were performed using methods as previously described (Deryugina E I and Quigley J P. Chapter 2. Chick embryo chorioallantoic membrane models to quantify angiogenesis induced by inflammatory and tumor cells or purified effector molecules. Methods Enzymol. 444:21-41. 2008). […]

[1] = tested on: HSV-1 17syn+ ocular infection; experiment: HSV-1 ocular infection mouse model, H&E histology of eyes (leukocytic infiltration, peripheral neovascularization); assay type: in vivo, Balb/c mice; settings: day 25 PI
Description: Histological score (0-1) was calculated based on leukocytic infiltration and peripheral neovascularization of hematoxylin & eosin (H&E) stained slides of mouse eyes on day 25 PI.
(§1) All experimental procedures were performed in accordance with the ARVO Resolution for the Use of Animals in Ophthalmic and Vision Research and were approved by the Xavier University Animal Care and Use Committee. Female 20 g Balb/c mice were obtained from Charles River Laboratories. Mice were allowed to equilibrate to their surroundings for 2 weeks and then were anesthetized by intramuscular administration of xylazine (6.6 mg/kg of body weight) and ketamine (100 mg/kg of body weight). The corneas were mildly scarified in a 2×2 cross-hatch pattern and each cornea was inoculated with 5×10^5 PFU of strain HSV 17syn+. […] DNA was collected by swabbing the eyes with filter paper, and the eyes were examined with a slit-lamp on PI days 2, 4, 7, 9, 11, 14, 18 and 25. Average neovascularization/eye was scored using the formula A=(C×0.4×L×π)/2 where C=clock hours of neovascularization; 30° arc is 1 (360° circle with a total of 12); L is the length of the longest neovessel, and A is the area of neovascularization. Students scored (by eye) the animals on the days indicated in a masked fashion using the slit-lamp, and images representative of each group were taken. Clinical scores based on epiphora, inflammation and discharge were calculated where 0=no manifestations, +1=slight manifestations, +2=moderate manifestations, and +3=severe manifestations. Mice were sacrificed with CO2 on day 25 post-infection, and eyes were harvested, sectioned, stained with hematoxylin and eosin (H&E) for histological analysis based on peripheral neovascularization and leukocytic infiltration where 0=clear eyes, 0.5=either peripheral neovascularization or leukocytic infiltration, and 1=both peripheral neovascularization and leukocytic infiltration. Ex ovo chick embryo chorioallantoic membrane collagen angiogenesis assays were performed using methods as previously described (Deryugina E I and Quigley J P. Chapter 2. Chick embryo chorioallantoic membrane models to quantify angiogenesis induced by inflammatory and tumor cells or purified effector molecules. Methods Enzymol. 444:21-41. 2008). Briefly, fertilized embryos (Charles River Laboratories, Charleston, S.C.) were incubated at 37.5° C. for 3 days, removed from their shell using a Dremel tool and placed into a covered weighing boat for 7 further days of incubation. […] Four collagen onplants were added per egg on at least 3 separate eggs. After three additional days of incubation, images were taken of each plug using a mini-Vid camera (LW Scientific; Lawrenceville, Ga.) and quantified in a masked fashion based on the percentage of grids that were positive for newly formed blood vessels.
To confirm the results in FIGS. 1A and 1B, sections of one cornea from each mouse was sectioned, stained with H&E and analyzed for leukocytic infiltrate and peripheral neovascularization of the cornea.

[2] = tested on: HSV-1 17syn+ ocular infection; experiment: HSV-1 ocular infection mouse model, combined clinical score (epiphora, inflammation, discharge); assay type: in vivo, Balb/c mice; settings: 1% TFT, 0.01% flavopiridol, 0.1% DRB drops
Description: The combined clinical score was determined based on epiphora (excess tearing), inflammation and discharge. […], +1=slight manifestations, +2=moderate manifestations, and +3=severe manifestations.
as §1
FIG. 1B is the combined clinical score for the treatment groups based on epiphora (excess tearing), inflammation, and discharge.

[3] = Ocular safety and tolerability of the formulation, rabbit eyes; assay type: in vivo; settings: dose and frequency of the HSV-1 corneal neovascularization study
Description: (§2) This was assessed with the dose and frequency that was used in the chemotherapeutic study of HSV-1 corneal neovascularization. FIG. 1A presents the results of slit-lamp examination (SLE) scores of the corneas of the four treatment groups beginning on post-inoculation day 2 and continuing to 25 days following infection.

global transcription = settings: low-dose FP; Lu et al. Mol Cancer Ther (2004); cited from earlier work
[4] = tested on: corneal neovascularization due to alkali burn; experiment: Corneal neovascularization due to chemical (NaOH) burn in mice; assay type: in vivo, Balb C mice; settings: 0.01% FP 5× daily; four days post injury; 0.15N NaOH for 15 seconds
Description: Following chemical treatment of mouse eyes with 0.15N NaOH, control and treated eyes were scored for neovascularization using the formula A=(C×0.4×L×pi)/2; where C=clock hours of neovascularization; 30° arc is 1 (360° L is the length of the longest neovessel, and A is the area of neovascularization. Animals were scored using a slit-lamp microscope, and images representative of each group were taken. One day post injury, flavopirodol reduced neovascularization to the level observed in undamaged and in damaged but prednisone-treated eyes.
To determine whether FP would reduce corneal neovascularization due to chemical injury in a mouse model system, female Balb C mice (7 per group) were treated in their right eyes with 0.15N NaOH for 15 seconds and the left eye was not treated with NaOH. […] Neovascularization was scored using the formula A=(C×0.4×L×pi)/2; where C=clock hours of neovascularization; 30° arc is 1 (360° L is the length of the longest neovessel, and A is the area of neovascularization. Animals were scored in a masked fashion using a slit-lamp microscope, and images representative of each group were taken. The longest possible length of a neovessel is 1.6 mm and the greatest possible arc is 12/12 hours.

[5] = Ocular safety and tolerability of the formulation, mouse eyes; assay type: in vivo; settings: dose and frequency of the HSV-1 corneal neovascularization study
Description: as §2

## CN1CC[C@H](c2c(O)cc(O)c3c(=O)cc(-c4ccccc4Cl)oc23)[C@H](O)C1 [flavopiridol]
HSV-1 17syn+
  quantitative real-time PCR score (HSV-1 DNA) on ocular swabs: 0.039±0.176
[1]; H&E sections
  mouse eyes exhibiting corneal neovascularization: 0%
  mouse eyes exhibiting leukocytic infiltration: 0%
[1]; H&E stained corneal sections
  histological score (scale 0-1) for leukocytic infiltrate and peripheral neovascularization: 0.125±0.125
[2]; day 11
  combined clinical score (epiphora, inflammation, discharge; 0 to +3): 0.169±0.248
[2]; day 25
  combined clinical score (epiphora, inflammation, discharge; 0 to +3): 0.039±0.177
[3]
  safety and tolerability of the formulation in the eye: safe and well-tolerated
Global transcription
  block of global transcription: does not block global transcription
[4]
  corneal neovascularization after alkali burn (slit-lamp area score): reduced neovascularization due to alkali burn to the level observed in undamaged and in damaged but prednisone-treated eyes
[5]
  safety and tolerability of the formulation in the eye: safe and well-tolerated
